Results from PubChem BioAssay (NCI).
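Where inhibition never reached the appropriate level, the endpoint shown equals the highest concentration tested. Otherwise, values were interpolated linearly from a five-concentration, 48-hour dose response in 96-well plates. The concentration for 50% growth inhibition is given as GI50. TGI is the concentration that stops growth completely.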

Columns and labels:
Assay in all cases: NCI tumour cell line growth inhibition, 48 h
UO-31 renal = test system: UO-31 renal
HT29 colon = test system: HT29 colon
HL-60(TB) leukemia = test system: HL-60(TB) leukemia
BT-549 breast = test system: BT-549 breast
HOP-92 NSCLC = test system: HOP-92 NSCLC
SNB-75 CNS = test system: SNB-75 CNS
SK-MEL-5 melanoma = test system: SK-MEL-5 melanoma
PC-3 prostate = test system: PC-3 prostate

SMILES	GI50 (UO-31 renal) [µM]	TGI (UO-31 renal) [µM]	GI50 (HT29 colon) [µM]	TGI (HT29 colon) [µM]	GI50 (HL-60(TB) leukemia) [µM]	TGI (HL-60(TB) leukemia) [µM]	GI50 (BT-549 breast) [µM]	TGI (BT-549 breast) [µM]	GI50 (HOP-92 NSCLC) [µM]	TGI (HOP-92 NSCLC) [µM]	GI50 (SNB-75 CNS) [µM]	TGI (SNB-75 CNS) [µM]	GI50 (SK-MEL-5 melanoma) [µM]	TGI (SK-MEL-5 melanoma) [µM]	GI50 (PC-3 prostate) [µM]	TGI (PC-3 prostate) [µM]
CCN(C(=O)CCl)C(C)(C)C(SSSC(c1ccc(Cl)cc1)C(C)(C)N(CC)C(=O)CCl)c1ccc(Cl)cc1 (stereo not drawn)	3.88	15.3	2.65	8.23	2.1	7.92	10.3	23	1.29	8.6	13.3	29.5	6.92	20.2		
ICCC(c1ccccc1)(c1ccccc1)c1ccccc1	1.72	9.87	2.34	9.07	1.72	3.88			2.7	18.2	1.7	13	3.23	11.2	4.32	19.4
COc1cc2ccnc3c2c(c1OC)-c1ccc(=O)ccc1-3	30	> 100	14.8	68.9			32.1	> 100	14.4	80.4	25.9	80.1	17.1	47.9	29.7	> 100
Nc1c(C(=O)c2cccc(C#CCN3CCOCC3)c2)cnn1-c1ccc(F)cc1	> 25	> 25	10.9	> 25	16.4	> 25	> 25	> 25	> 13	> 25	> 6.15	> 25	8.88	> 25	15.4	> 25
O=C(O)c1ccc(NCc2nc3cc4ccccc4cc3[nH]2)cc1		> 100		> 100		> 54.8		> 100		> 100		> 100		> 72.7		> 100
C[C@]12CCC3c4ccc(O)cc4CCC3C1Cc1ccc(O)cc12 (stereo partly drawn)	11.8	28.7	6.13	20.6	1.08	3.29	6.57	23.4	12.7	27.9	6.35	31.2	4.85	16.8	7.25	22.4
N#CSCc1c(Cl)cccc1Cl	4.41	27.6	3.75	> 100			2.31	7.48	1.18	> 30	20.2	> 100	4.5	21.2	8.73	> 100
CN1CCN(Cc2ccc(NC(=O)c3nc4ccc5[nH]ncc5c4c4c3CCC4)cc2C(F)(F)F)CC1	0.728	1.38	1.02	2.08	1.06	2.28	7.61	14.9	3.53	10.6	4.81	10.8	7.47	14.1	0.926	2.12
O=C(OCC1OC(OC(=O)c2cc(O)c(O)c(OC(=O)c3cc(O)c(O)c(O)c3)c2)C(OC(=O)c2cc(O)c(O)c(OC(=O)c3cc(O)c(O)c(O)c3)c2)C(OC(=O)c2cc(O)c(O)c(OC(=O)c3cc(O)c(O)c(O)c3)c2)C1OC(=O)c1cc(O)c(O)c(OC(=O)c2cc(O)c(O)c(O)c2)c1)c1cc(O)c(O)c(OC(=O)c2cc(O)c(O)c(O)c2)c1 (stereo not drawn)	17.4	> 50	26.4	> 50	29.4	> 50	12.1	35.9	43.9	> 50	38.8	> 50	10	27.9	10.1	> 50
O=C(NNc1ccccc1)OCc1ccccc1	2.88	37	54.6	> 100	3.55	58.7	16.6	85.5	14.7	> 100	> 100	> 100	16.8	> 100	5.35	> 100
c1ccc(-c2nnc(Nc3ccc4c(c3)OCCO4)o2)c(NCc2ccncc2)c1	0.22	26.3	0.0321	1.75	0.0236	0.722	0.0589	7.01	0.286	6.87	0.0125	12.1	0.0257	0.153	0.0301	> 52.7
CO[C@H]1C[C@@H]2CC[C@@H](C)[C@@](O)(O2)C(=O)C(=O)N2CCCC[C@H]2C(=O)O[C@H]([C@H](C)C[C@@H]2CC[C@@H](OP(C)(C)=O)[C@H](OC)C2)CC(=O)[C@H](C)/C=C(\C)[C@@H](O)[C@@H](OC)C(=O)[C@H](C)C[C@H](C)/C=C/C=C/C=C/1C	< 0.01	16.1	8.07	24	17.5	39.8	< 0.0131	18.6	0.106	17.2	< 0.01	15.7		18.4	< 0.0419	18.8
O=C(O)CCCSc1nc2ccccc2s1		> 100		> 100		> 100		> 100		> 100		> 100		> 100		> 100
O=C(O)C[O][Sb][O]CC(=O)O	> 100	> 100	> 100	> 100			> 100	> 100	> 100	> 100	> 100	> 100	> 100	> 100	> 100	> 100
COc1ccc2[nH]c(=O)c(/C=C/C(=O)/C=C/c3ccc(O)c(OC)c3)cc2c1	1.47	2.79	0.777	2.12	2.24	> 100	1.37	2.66	1.84	5.06	2.96	14.4	1.77	3.27	1.83	4.94
